Data taken from PMC8877905, “Novel Cocrystals of Vonoprazan: Machine Learning-Assisted Discovery” (Pharmaceutics, 2022).
Like-named read-outs stand apart in the source and are kept apart here.

Tests used:
[1] = pKa calculation with ChemAxon calculator and ΔpKa rule; details: pKa (base) − pKa (acid); VPZ pKa = 9.4 versus calculated coformer pKa
Excerpt: The combination with a value 0 ≤ ΔpKa ≤ 3 is much less predictable and falls within a “salt-cocrystal continuum” [38]. We applied this approach to the coformers selected based on virtual cocrystal screening to assess whether the combination would form a cocrystal or salt (Table 1).

[2] = Equilibrium solubility in pH 1.2 and pH 6.8 solutions, 37 °C, 24 h, HPLC; format: physicochemical; details: for solubility thermodynamic at 24 h: 37 °C, VPZ concentration by HPLC
Experimental: Excess amounts (~500 mg) of powder samples were added to 10 mL of pH 1.2 solution and 30 mL of pH 6.8 solution. […] After 24 h, aliquots of 2.5 mL were withdrawn from the suspension using a 0.45 μm nylon syringe filter and diluted immediately, followed by analysis of the VPZ concentration by HPLC.
The VPZ concentration was measured using an HPLC system (UFLC; Shimadzu) with a diode array detector and Shim-pack GIS-ODS C18 column (4.6 × 250 mm, 5 μm). HPLC analysis was conducted at a column oven temperature of 40 °C with a flow rate of 1 mL/min, and the mobile phase was a mixture of 20 mM ammonium formate in water (pH 3.05) and HPLC-grade MeOH with the addition of 10 mM triethylamine (TEA) (80% : 20%, v/v). The volume of the injected samples was 10 μL and the VPZ content was assayed spectrophotometrically at a wavelength of 245 nm.

[3] = Accelerated stability testing in the solid state; format: physicochemical
[4] = Stability in aqueous solution: PXRD of solids remaining after 24 h slurry; format: physicochemical; details: pH 6.8 solution, slurry for 24 h
Experimental: The solubility and dissolution behavior of drugs in aqueous solvent are important physicochemical properties for good oral bioavailability. VPZ has pH-dependent solubility, which increases with decreasing pH. […] The aqueous solubility for cocrystals and salts of VPZ was measured in pH 1.2 and 6.8 buffer solutions at 37 °C. VPZ concentrations were determined in aliquots retrieved from the suspensions after 24 h by HPLC. One of the major challenges in investigations of solubility in multicomponent solid forms is the change in the solution composition due to precipitation of the components dissociated over the test period. In this study, the stability of the cocrystals in aqueous solution was checked by PXRD analysis of the solids remaining after solubility experiments. At pH 1.2, however, the amount recovered from the suspensions was too low to confirm their stability. […] Under both conditions, the solubility order was VPZ–RES > VPZ–CAT > VPZ–GAL.

[5] = set-up: method as in PMID 28578848; details: cited from earlier work
[6] = Intrinsic dissolution rate (IDR) in phosphate buffer pH 6.8; format: physicochemical; details: for IDR in pH 6.8: phosphate buffer pH 6.8, 37 °C, 50 rpm, 13 mm pellet
Experimental: IDR was investigated using a Distek […] dissolution tester (Distek, North Brunswick, NJ, USA). […] Aliquots of 1.5 mL of the dissolution samples were collected at predetermined time intervals, filtered through 0.45 μm syringe filters, and analyzed for their VPZ concentration by HPLC. The VPZ concentration was measured using an HPLC system (UFLC; Shimadzu) with a diode array detector and Shim-pack GIS-ODS C18 column (4.6 × 250 mm, 5 μm). […] The volume of the injected samples was 10 μL and the VPZ content was assayed spectrophotometrically at a wavelength of 245 nm.

| Compound | ΔpKa [1] | also measured |
| --- | --- | --- |
| O=C(O)c1ccc(O)cc1 [4-hydroxybenzoic acid] | 5.02 |  |
| NC(=O)c1ccccc1 [Benzamide] | −5.16 |  |
| NC(=O)CO [Glycolamide] | −4.25 |  |
| Oc1ccc(O)cc1 [Hydroquinone] | −0.58 |  |
| NC(=O)c1ccncc1 [Isonicotinamide] | −4.31 |  |
| Cc1cc(O)ccc1O [Methyl-hydroquinone] | −0.7 |  |
| NC(=O)c1cccnc1 [Nicotinamide] | −3.99 |  |
| NC(=O)C(=O)O [Oxamic acid] | 6.92 |  |
| Oc1ccccc1O [Pyrocatechol] | −0.24 |  |
| CNCc1cc(-c2ccccc2F)n(S(=O)(=O)c2cccnc2)c1.O=C(O)/C=C/C(=O)O [VPZ-FUM, 1-[5-(2-Fluorophenyl)-1-(pyridin-3-ylsulfonyl)-1H-pyrrol-3-yl]-N-methylmethanamine monofumarate] |  | solubility at 24 h ([2]; Figure 7a, pH 1.2 buffer, read-out: Solubility in pH 1.2 buffer, Concentration): 27600 µg/mL; solubility at 24 h ([2]; Figure 7b, pH 6.8 buffer, read-out: Solubility in pH 6.8 buffer, Concentration): 3400 µg/mL; solubility thermodynamic at 24 h ([2]; pH 1.2 solution, read-out: Equilibrium Solubility after 24 h in pH 1.2): 27710 ± 210 µg/mL; solubility thermodynamic at 24 h ([2]; pH 6.8 solution, read-out: Equilibrium Solubility after 24 h in pH 6.8): 3400 ± 450 µg/mL; stability in the solid state [3]: remained stable; stability in aqueous solution (PXRD of undissolved residue) [4]: different from those of the starting material; reported solubility in water [5]: < 1000 µg/mL; time to reach peak concentration in IDR plot ([6]; pH 6.8 buffer): ≤ 60 min; IDR in pH 6.8 [6]: 1.35 mg/cm^2∙min |
| Vonoprazan–pyrogallol [VPZ-GAL] |  | IDR in pH 6.8 [6]: 0.69 mg/cm^2∙min |

The next lines start with results.

| ΔpKa [1] | Compound | also measured |
| --- | --- | --- |
| 0.3 | Oc1cccc(O)c1O [Pyrogallol] |  |
| 5.79 | O=C1CC[C@@H](C(=O)O)N1 [Pyroglutamic acid] |  |
| 5.78 | O=C(O)c1ccc[nH]1 [Pyrrole-2-carboxylic acid] |  |
| −0.17 | Oc1cccc(O)c1 [Resorcinol] |  |
| 5.54 | O=C(O)CCC(=O)O [Succinic acid] |  |
| −6.9 | NC(N)=O [Urea] |  |
| 7.46 | O=C1NS(=O)(=O)c2ccccc21 [saccharin] |  |
